Reference: PubChem BioAssay (NCI)
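Protocol summary: plate cells (96-well), add compound at 5 concentrations, incubate 48 h, interpolate endpoints linearly. TGI: total growth inhibition.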

Assays:
Assay in all cases: NCI tumour cell line growth inhibition, 48 h
SK-MEL-2 melanoma = tested on: SK-MEL-2 melanoma
P388 leukemia = tested on: P388 leukemia
HCC-2998 colon = tested on: HCC-2998 colon
P388/ADR leukemia = tested on: P388/ADR leukemia
U251 CNS = tested on: U251 CNS
SF-268 CNS = tested on: SF-268 CNS
LOX IMVI melanoma = tested on: LOX IMVI melanoma
SK-OV-3 ovarian = tested on: SK-OV-3 ovarian
NCI-H23 lung = tested on: NCI-H23 lung
MCF7 breast = tested on: MCF7 breast
OVCAR-8 ovarian = tested on: OVCAR-8 ovarian
NCI-H460 lung = tested on: NCI-H460 lung
OVCAR-5 ovarian = tested on: OVCAR-5 ovarian
MALME-3M melanoma = tested on: MALME-3M melanoma
UACC-62 melanoma = tested on: UACC-62 melanoma
NCI-H226 lung = tested on: NCI-H226 lung
OVCAR-3 ovarian = tested on: OVCAR-3 ovarian
HOP-62 NSCLC = tested on: HOP-62 NSCLC
MOLT-4 leukemia = tested on: MOLT-4 leukemia
A498 renal = tested on: A498 renal
SK-MEL-28 melanoma = tested on: SK-MEL-28 melanoma
UACC-257 melanoma = tested on: UACC-257 melanoma
COLO 205 colon = tested on: COLO 205 colon
KM20L2 colon = tested on: KM20L2 colon
CAKI-1 renal = tested on: CAKI-1 renal
RXF 393 renal = tested on: RXF 393 renal
SK-MEL-5 melanoma = tested on: SK-MEL-5 melanoma
SF-539 CNS = tested on: SF-539 CNS
A549 NSCLC = tested on: A549 NSCLC
SN12C renal = tested on: SN12C renal
SNB-19 CNS = tested on: SNB-19 CNS
HT29 colon = tested on: HT29 colon
HCT-15 colon = tested on: HCT-15 colon
SF-295 CNS = tested on: SF-295 CNS
HL-60(TB) leukemia = tested on: HL-60(TB) leukemia
SNB-75 CNS = tested on: SNB-75 CNS
EKVX NSCLC = tested on: EKVX NSCLC
NCI-H522 lung = tested on: NCI-H522 lung
KM12 colon = tested on: KM12 colon
HOP-92 NSCLC = tested on: HOP-92 NSCLC
UO-31 renal = tested on: UO-31 renal
HCT-116 colon = tested on: HCT-116 colon
K-562 leukemia = tested on: K-562 leukemia
OVCAR-4 ovarian = tested on: OVCAR-4 ovarian
RPMI-8226 leukemia = tested on: RPMI-8226 leukemia
IGROV1 ovarian = tested on: IGROV1 ovarian
SW-620 colon = tested on: SW-620 colon
NCI/ADR-RES ovarian = tested on: NCI/ADR-RES ovarian
SN12K1 renal = tested on: SN12K1 renal
XF 498 CNS = tested on: XF 498 CNS
786-0 renal = tested on: 786-0 renal
DMS 114 small cell lung = tested on: DMS 114 small cell lung
LXFL 529 NSCLC = tested on: LXFL 529 NSCLC
SNB-78 CNS = tested on: SNB-78 CNS
M19-MEL melanoma = tested on: M19-MEL melanoma
TK-10 renal = tested on: TK-10 renal
RXF-631 renal = tested on: RXF-631 renal
DMS 273 small cell lung = tested on: DMS 273 small cell lung
ACHN renal = tested on: ACHN renal
M14 melanoma = tested on: M14 melanoma
DLD-1 colon = tested on: DLD-1 colon
HOP-18 NSCLC = tested on: HOP-18 NSCLC
CCRF-CEM leukemia = tested on: CCRF-CEM leukemia

`COCCO` showed a TGI (SK-MEL-2 melanoma) greater than 100 µM, a TGI (P388 leukemia) greater than 100 µM and a TGI (HCC-2998 colon) greater than 100 µM. It also gave a TGI (P388/ADR leukemia) greater than 100 µM, a TGI (U251 CNS) greater than 100 µM and a TGI (SF-268 CNS) greater than 100 µM. For the same molecule, the TGI (LOX IMVI melanoma) was greater than 100 µM, the TGI (SK-OV-3 ovarian) was greater than 100 µM and the TGI (NCI-H23 lung) was greater than 100 µM. For the same molecule, the TGI (MCF7 breast) was greater than 100 µM, the TGI (OVCAR-8 ovarian) was greater than 100 µM and the TGI (NCI-H460 lung) was greater than 100 µM. The TGI (OVCAR-5 ovarian) was greater than 100 µM, the TGI (MALME-3M melanoma) was greater than 100 µM and the TGI (UACC-62 melanoma) was greater than 100 µM. The TGI (NCI-H226 lung) was greater than 100 µM, the TGI (OVCAR-3 ovarian) was greater than 100 µM and the TGI (HOP-62 NSCLC) was greater than 100 µM. The TGI (MOLT-4 leukemia) was greater than 100 µM, the TGI (A498 renal) was greater than 100 µM and the TGI (SK-MEL-28 melanoma) was greater than 100 µM. The TGI (UACC-257 melanoma) was greater than 100 µM, the TGI (COLO 205 colon) was greater than 100 µM and the TGI (KM20L2 colon) was greater than 100 µM. For the same molecule, the TGI (CAKI-1 renal) was greater than 100 µM, the TGI (RXF 393 renal) was greater than 100 µM and the TGI (SK-MEL-5 melanoma) was greater than 100 µM. For the same molecule, the TGI (SF-539 CNS) was greater than 100 µM, the TGI (A549 NSCLC) was greater than 100 µM and the TGI (SN12C renal) was greater than 100 µM. The TGI (SNB-19 CNS) was greater than 100 µM, the TGI (HT29 colon) was greater than 100 µM and the TGI (HCT-15 colon) was greater than 100 µM. The TGI (SF-295 CNS) was greater than 100 µM, the TGI (HL-60(TB) leukemia) was greater than 100 µM and the TGI (SNB-75 CNS) was greater than 100 µM. The TGI (EKVX NSCLC) was greater than 100 µM, the TGI (NCI-H522 lung) was greater than 100 µM and the TGI (KM12 colon) was greater than 100 µM. It also gave a TGI (HOP-92 NSCLC) greater than 100 µM, a TGI (UO-31 renal) greater than 100 µM and a TGI (HCT-116 colon) greater than 100 µM. It also gave a TGI (K-562 leukemia) greater than 100 µM, a TGI (OVCAR-4 ovarian) greater than 100 µM and a TGI (RPMI-8226 leukemia) greater than 100 µM. It also gave a TGI (IGROV1 ovarian) greater than 100 µM, a TGI (SW-620 colon) greater than 100 µM and a TGI (NCI/ADR-RES ovarian) greater than 100 µM. The TGI (SN12K1 renal) was greater than 100 µM.
`N=C(N)n1ncc(Cl)c(Cl)c1=O` gave a TGI (SK-MEL-2 melanoma) of 6.93 µM, a TGI (U251 CNS) of 20 µM and a TGI (SF-268 CNS) of 9.34 µM. It also gave a TGI (SK-OV-3 ovarian) of 32 µM, a TGI (NCI-H23 lung) of 5.06 µM and a TGI (OVCAR-8 ovarian) of 4.55 µM. It also gave a TGI (XF 498 CNS) of 3.86 µM, a TGI (NCI-H460 lung) of 31.4 µM and a TGI (OVCAR-5 ovarian) of 30.7 µM. For the same molecule, the TGI (MALME-3M melanoma) was 4.98 µM, the TGI (786-0 renal) was 7.02 µM and the TGI (UACC-62 melanoma) was 5.76 µM. The TGI (DMS 114 small cell lung) was 3.66 µM, the TGI (NCI-H226 lung) was 18.3 µM and the TGI (OVCAR-3 ovarian) was 3.31 µM. For the same molecule, the TGI (MOLT-4 leukemia) was 4.64 µM, the TGI (A498 renal) was 35.1 µM and the TGI (SK-MEL-28 melanoma) was 5.26 µM. It also gave a TGI (UACC-257 melanoma) of 4.66 µM, a TGI (COLO 205 colon) of 3.43 µM and a TGI (LXFL 529 NSCLC) of 3.31 µM. For the same molecule, the TGI (KM20L2 colon) was 19.3 µM, the TGI (CAKI-1 renal) was 3.31 µM and the TGI (SNB-78 CNS) was 3.98 µM. It also gave a TGI (M19-MEL melanoma) of 3.77 µM, a TGI (TK-10 renal) of 35.3 µM and a TGI (RXF-631 renal) of 3.36 µM. For the same molecule, the TGI (SK-MEL-5 melanoma) was 15.2 µM, the TGI (SF-539 CNS) was 5.42 µM and the TGI (A549 NSCLC) was 33.6 µM. The TGI (SN12C renal) was 8.44 µM, the TGI (SNB-19 CNS) was 12.9 µM and the TGI (HCT-15 colon) was 3.99 µM. It also gave a TGI (DMS 273 small cell lung) of 4.78 µM, a TGI (SF-295 CNS) of 22.6 µM and a TGI (ACHN renal) of 14.3 µM. For the same molecule, the TGI (M14 melanoma) was 4.03 µM, the TGI (DLD-1 colon) was 5.24 µM and the TGI (SNB-75 CNS) was 9.24 µM. The TGI (EKVX NSCLC) was 5.07 µM, the TGI (NCI-H522 lung) was 3.43 µM and the TGI (KM12 colon) was 20.2 µM. It also gave a TGI (HOP-92 NSCLC) of 4.42 µM, a TGI (UO-31 renal) of 4.93 µM and a TGI (HCT-116 colon) of 3.32 µM. The TGI (K-562 leukemia) was 6.36 µM, the TGI (OVCAR-4 ovarian) was 3.41 µM and the TGI (RPMI-8226 leukemia) was 7.55 µM. It also gave a TGI (IGROV1 ovarian) of 28.7 µM, a TGI (HOP-18 NSCLC) of 2.86 µM and a TGI (SW-620 colon) of 3.75 µM.
Work on `C=CCn1c2ccccc2c2c(C)c3cnccc3c(C)c21` yielded a TGI (SK-MEL-2 melanoma) greater than 71 µM, a TGI (P388 leukemia) of 20.8 µM and a TGI (CCRF-CEM leukemia) of 24.5 µM. The TGI (HCC-2998 colon) was 104 µM, the TGI (P388/ADR leukemia) was 37.3 µM and the TGI (U251 CNS) was 81.3 µM. It also gave a TGI (SF-268 CNS) of 88.7 µM, a TGI (LOX IMVI melanoma) of 60 µM and a TGI (SK-OV-3 ovarian) of 38.5 µM. The TGI (NCI-H23 lung) was 45.3 µM, the TGI (MCF7 breast) was 62.6 µM and the TGI (OVCAR-8 ovarian) was 40.4 µM. For the same molecule, the TGI (XF 498 CNS) was 28.7 µM, the TGI (NCI-H460 lung) was 37.8 µM and the TGI (OVCAR-5 ovarian) was 69.9 µM. The TGI (MALME-3M melanoma) was 62 µM, the TGI (UACC-62 melanoma) was 41.2 µM and the TGI (NCI-H226 lung) was 40.3 µM. For the same molecule, the TGI (OVCAR-3 ovarian) was 48.6 µM, the TGI (HOP-62 NSCLC) was 36.3 µM and the TGI (MOLT-4 leukemia) was 9.82 µM. It also gave a TGI (A498 renal) of 49.8 µM, a TGI (SK-MEL-28 melanoma) greater than 125 µM and a TGI (UACC-257 melanoma) of 41.9 µM. It also gave a TGI (COLO 205 colon) of 72.5 µM, a TGI (KM20L2 colon) of 112 µM and a TGI (CAKI-1 renal) of 6.75 µM. It also gave a TGI (SNB-78 CNS) of 125 µM, a TGI (M19-MEL melanoma) of 58 µM and a TGI (RXF 393 renal) of 24.5 µM. For the same molecule, the TGI (SK-MEL-5 melanoma) was 56.9 µM, the TGI (SF-539 CNS) was 44.5 µM and the TGI (A549 NSCLC) was greater than 97.6 µM. For the same molecule, the TGI (SN12C renal) was greater than 66.2 µM, the TGI (SNB-19 CNS) was greater than 78.2 µM and the TGI (HT29 colon) was 124 µM. For the same molecule, the TGI (HCT-15 colon) was greater than 95.5 µM, the TGI (DMS 273 small cell lung) was 37.7 µM and the TGI (SF-295 CNS) was 52.5 µM. It also gave a TGI (HL-60(TB) leukemia) of 11.9 µM, a TGI (DLD-1 colon) greater than 121 µM and a TGI (SNB-75 CNS) of 57.4 µM. For the same molecule, the TGI (EKVX NSCLC) was 66.1 µM, the TGI (NCI-H522 lung) was 37.2 µM and the TGI (KM12 colon) was 83.9 µM. For the same molecule, the TGI (HOP-92 NSCLC) was 29.8 µM, the TGI (UO-31 renal) was 32.8 µM and the TGI (HCT-116 colon) was 46.9 µM. For the same molecule, the TGI (K-562 leukemia) was 52.2 µM, the TGI (OVCAR-4 ovarian) was 64.2 µM and the TGI (RPMI-8226 leukemia) was 29.5 µM. For the same molecule, the TGI (IGROV1 ovarian) was 95.3 µM, the TGI (HOP-18 NSCLC) was greater than 125 µM and the TGI (SW-620 colon) was 59.1 µM. The TGI (NCI/ADR-RES ovarian) was 34.4 µM and the TGI (SN12K1 renal) was 52.5 µM.
